# Measurements reported in patent US11497694B2, “Oral care compositions” (Colgate-Palmolive Company, priority 2017, dated 2022).
# System: bacteria
# Assay: Stabilizing effect of lysine on CPC-STPP / CPC-DV interaction (bacterial viability)
# Assay type: cell-based
# Conditions: PBS 100
# Excerpt: Compositions were created to test the stabilizing effect that lysine had on the CPC and DV polymer. Mouthwashes were created according to the method of Example 1. Each sample was created with CPC and either STPP or DV. The compositions also contained varied amounts of lysine. The samples created are summarized below.
smiles,measurement,setting,value
CCO [Ethanol],Bacterial Viability at pH 4.6 (%),"CPC-DV mouthwashes with varied lysine, pH 4.6",11%
same,Bacterial Viability at pH 6.0 (%),"CPC-DV mouthwashes with varied lysine, pH 6.0",19%
same,Bacterial Viability (%),CPC-STPP mouthwashes with varied lysine,23%
